{"source": "patent US9957230B2", "about": "“Synergistic compositions” (Cadila Healthcare Limited, priority 2013, dated 2018)", "key": {"db/db mice": {"tested_on": "db/db mice", "experiment": "Oral glucose tolerance test in db/db mice (studies I and II)", "type": "in vivo", "conditions": "Compound (Ia) 0.1 mg/kg; for AUC Glucose: OGTT day 14, fasting, glucose load 2 gm/kg; for % improvement in AUC glucose vs control: OGTT after 14 days of treatment", "description": "8. […] 8. The treatment was given oral gavages once daily for 14 days.\nThe OGTT procedure followed is as given below—"}, "[1]": {"tested_on": "high fat high cholesterol fed Syrian golden hamster", "experiment": "Lipid lowering effects with Atorvastatin in HF-HC fructose diet Syrian golden hamsters (study V)", "type": "in vivo", "description": "The in-vivo efficacy was done in high fat high cholesterol fed Syrian golden hamster. It is an excellent model to investigate hepatic assembly and secretion of lipoprotein since its lipoprotein metabolism closely resembles that of humans as they have cholesteryl ester transfer protein (CETP) as like human. Feeding high fat high cholesterol diet to Syrian golden hamster causes hypercholesterolemia and hypertriglyceridemia which causes an increase in LDL levels and decrease in HDL-C/TC ratio.\nIn this experiment, 18 Syrian golden hamsters which were kept on high fat-high cholesterol (HF-HC) fructose diet were divided into 3 treatment groups and one group was on normal diet control which was NIN (National Institute of Nutrition, NIN diet) control, the treatment given was as per Table no. 1. […] 20. The treatment was given oral gavages once daily for 13 days.\nCalculations of the % change in LDL-C levels, triglyceride and LDL-C/HDL-C ratio (Vs HF-HC fructose diet control) were performed using MS Excel."}, "[2]": {"conditions": "Table 12, Metformin 150 mg/kg p.o."}, "[3]": {"conditions": "HF-HC fructose diet hamsters, 13 days, Compound (Ia) 3 mg/kg, Atorvastatin 0.5 mg/kg"}, "[4]": {"conditions": "Table 23, LDL/HDL ratio, Day 13, Compound Ia 3 mg/kg, Atorvastatin 0.5 mg/kg"}}, "note": "Where “and” joins values, the source holds several entries; their conditions need not be identical. Equal entries are not always repeated. Structures can show the parent of a compound that is named as a salt."}
{"smiles": "CCO[C@@H](Cc1ccc(OCCn2c(C)ccc2-c2ccc(SC)cc2)cc1)C(=O)O", "note": "[Compound (Ia), Benzenepropanoic acid, α-ethoxy-4-[2-[2-methyl-5-[4-(methylthio)phenyl]-1H -pyrrol-1-yl]ethoxy]-, magnesium salt]", "values": [{"measurement": "AUC Glucose", "setting": "db/db mice; Table 10, Sitagliptin 3 mg/kg p.o.", "value": "51757.3 ± 3366.3", "unit": "mg·min/dL"}, {"measurement": "% improvement in AUC glucose vs control", "setting": "db/db mice; Table 10 and text, Sitagliptin 3 mg/kg p.o.", "value": "9% and 9.0 ± 5.9%"}, {"measurement": "% improvement in AUC glucose vs control", "setting": "db/db mice; [2]", "value": 9, "unit": "%"}, {"measurement": "AUC Glucose", "setting": "db/db mice; [2]", "value": 51757.3, "unit": "mg·min/dL"}, {"measurement": "reduction in LDL-C", "setting": "[1]; [3]", "value": 14.8, "unit": "%"}, {"measurement": "reduction in LDL-C/HDL-C ratio, atherogenic index", "setting": "[1]; [3]", "value": "does not showed any reduction"}, {"measurement": "reduction in triglyceride", "setting": "[1]; [3]", "value": 65.2, "unit": "%"}, {"measurement": "Serum LDL-C (mg/dl) Day 0", "setting": "[1]; Table 21, Day 0 (pretreatment), HF-HC fructose diet hamsters, Compound Ia 3 mg/kg, Atorvastatin 0.5 mg/kg oral once daily 13 days", "value": 75.1, "unit": "mg/dL"}, {"measurement": "LDL-C % Change vs Day 0", "setting": "[1]; Table 21, Day 13, Compound Ia 3 mg/kg, Atorvastatin 0.5 mg/kg", "value": 0.1, "unit": "%"}, {"measurement": "Serum LDL-C (mg/dl) Day 13", "setting": "[1]; Table 21, Day 13, HF-HC fructose diet hamsters, Compound Ia 3 mg/kg, Atorvastatin 0.5 mg/kg oral once daily 13 days", "value": 73.1, "unit": "mg/dL"}, {"measurement": "% Change vs HF-HC Fructose Control", "setting": "[1]; Table 21, LDL-C, Day 13, Compound Ia 3 mg/kg, Atorvastatin 0.5 mg/kg", "value": "−14.8", "unit": "%"}, {"measurement": "Serum triglyceride (mg/dl) Day 0", "setting": "[1]; Table 22, Day 0 (pretreatment), HF-HC fructose diet hamsters, Compound Ia 3 mg/kg, Atorvastatin 0.5 mg/kg oral once daily 13 days", "value": 418.4, "unit": "mg/dL"}, {"measurement": "TG % Change vs Day 0", "setting": "[1]; Table 22, Day 13, Compound Ia 3 mg/kg, Atorvastatin 0.5 mg/kg", "value": "−64.0", "unit": "%"}, {"measurement": "Serum triglyceride (mg/dl) Day 13", "setting": "[1]; Table 22, Day 13, HF-HC fructose diet hamsters, Compound Ia 3 mg/kg, Atorvastatin 0.5 mg/kg oral once daily 13 days", "value": 149.5, "unit": "mg/dL"}, {"measurement": "% Change vs HF-HC Fructose Control", "setting": "[1]; Table 22, triglyceride, Day 13, Compound Ia 3 mg/kg, Atorvastatin 0.5 mg/kg", "value": "−65.2", "unit": "%"}, {"measurement": "LDL/HDL RATIO Day 0", "setting": "[1]; Table 23, Day 0 (pretreatment), HF-HC fructose diet hamsters, Compound Ia 3 mg/kg, Atorvastatin 0.5 mg/kg", "value": 0.79}, {"measurement": "LDL/HDL RATIO Day 13", "setting": "[1]; Table 23, Day 13, HF-HC fructose diet hamsters, Compound Ia 3 mg/kg, Atorvastatin 0.5 mg/kg", "value": 0.82}, {"measurement": "% Change vs HF-HC Fructose Control", "setting": "[1]; [4]", "value": 8.5, "unit": "%"}, {"measurement": "Change vs Day 0", "setting": "[1]; [4]", "value": 6.4}]}
